In US20130210034A1, “COMPLEX PHOSPHOPROTEIN ACTIVATION PROFILES” (BECKMAN COULTER, INC., priority 2005, published 2013):

What was measured:
pERK = experiment: Cytokine-stimulated phosphorylation in AML cell populations (BM or PB of AML patients); type: cell-based, human
Procedure: To assess the signal transduction response after growth factor simulation, a series comprising two sets of tubes including about 3×10^6 cells/100 μL were incubated at 37° C. for 30 minutes. After this pre-incubation period, tubes with then processes with either a stimulant or inhibitor. […] To examine the effects of protein phosphorylation inhibition, tubes were incubated with an inhibitor cocktail comprising 100 μM/100 μL UO126, 1 μM/100 μL LY294002, and 1 μM/100 μL rapamycin. One unstimulated tube receiving no stimulant or inhibitor was processed to assess basal levels of phospho-protein expression. After stimulation the cells were immediately fixed in 10% formaldehyde solution at 37° C. Pre-labeling with CD13, CD16 and CD64 antibodies was carried out 20 minutes prior to formaldehyde fixation. After fixation, one set of tubes was permeabilized without methanol for pAKT, pERK and pS6 staining and the other for 80% methanol permeabilized for pSTAT3 and pSTAT5 staining. After permeablization, the cells were washed in PBS with 2% BSA and blocked by re-suspended in 75 μL of PBS comprising 25% heat inactivated normal mouse serum, 25% normal rabbit serum. To stain cells with fluorescent conjugated monoclonal antibodies, samples were incubated on ice for 45 minutes in 100 μL of an antibody staining solution including either: 1) CD15-Pacific Orange, CD34-Phycoerythrin-Texas Red, CD117-Phycoerythrin-Cyanin 5.5, CD45-Allophycocyanin-Alexa Fluor 750 (or CD45-Pacific Orange, in which case CD15-Pacific Orange was omitted), pS6-Pacific Blue, pERK-Alexa Fluor 488 and pAKT-Alexa Fluor 647 or 2) CD15-Pacific Orange, CD34-Phycoerythrin-Texas Red, CD117-Phycoerythrin-Cyanin 5.5, CD45-Allophycocyanin-Alexa Fluor 750 or CD45-Pacific Blue, pSTAT3-Alexa Fluor 488 and pSTAT5-Phycoerythrin. The stained cells were washed twice with ice cold PBS containing 2% BSA and centrifuged at 800 g for 6 minutes at 4° C. The supernatant was discarded and cells re-suspended in 250 μL of chilled wash buffer for data acquisition. Stained cells were examined using either GALIOS flow cytometer (Beckman Coulter) or CYAN ADP (Beckman Coulter) equipped with 488 nm, 405 nm and 635 nm lasers to detect the degree of fluorescence. Data were analyzed using FCS Express (De Novo Software, CA) analysis software.
Specific phosphoprotein expression of pERK, pS6, pAKT, pSTAT5, and pSTAT3 was examined in seven discrete phenotypically defined populations based on 7-color immunophenotyping (FIG. 1). The percent of responding (phosphorprotein positive) cells for each of these populations was determined from individual single parameter histograms based on a fixed integration region set on the inhibitor treated control at about 3% positives.
Using normal BM signaling profiles of Example 1 as comparison, analysis of 14 AML samples was carried out to identify differences in signaling responses. White blood cells from BM or peripheral blood (PB) samples were obtained from 14 diagnosed AML patients undergoing routine clinical flow cytometry analysis using IRB approved protocols. The AML patients included newly diagnosed AML, AMLs arising in a background of MDS, therapy related AMLs and previously diagnosed AML post therapy. The median age of the patients at diagnosis was 51 years (range: 29-75 years) and represented 5 female and 9 male patients. The median white blood cell was 6.4 million/mL (range: 0.9-106 M/mL) and the BM morphologic blast count was an average of 46% (range: 0%-90%).
Experiments performed to assess the signal transduction response after growth factor simulation were performed as described for Example 1.

lymphocytes = experiment: Cytokine response in lymphocytes from bone marrow samples of healthy donors (Example 4); type: cell-based, human; settings: lymphocytes from healthy donor bone marrow (Example 4)
Procedure: To assess the signal transduction response after growth factor simulation, 100 to 200 μL of processed samples including about 2×10^6 WBC/100 μL were added to tubes and incubated at 37° C. for 30 minutes. For inhibition experiments, cells were incubated with 100 μM U0126, 1 μg/mL rapamycin, or both for at least 20 minutes prior to cytokine addition and in all cases for 30 min prior to formaldehyde addition. […] After stimulation the cells were immediately fixed by the addition of formaldehyde to a final concentration of 4% v/v and incubated for 10 minutes at room temperature. […]
First, doublets, aggregates, and debris were excluded by gating on single cell events in the SSC-Area versus SSC-Height histogram. […] Finally, these cells were further analyzed for cytokine-mediated increases in phosphorylation by constructing gates in the single parameter histograms (for positively and negatively stained events, i.e., for the phosphorylated and non-phosphorylated forms, respectively, of each protein) for pS6 (FIGS. 4D and 4G), pERK (FIGS. 4E and 4H), and pSTAT5 (FIGS. 4F and 4I). […] Following this gating scheme, data were analyzed by calculating the area under the curve (AUC), the frequency of positive-stained cells, and the median fluorescence intensity (MFI).

Molecule: Stem Cell Factor [SCF]
- pERK, AML Sample (pERK; patient AML2 (Example 3)): 4.8
- pERK, AML Sample (first AML5 line) (pERK; patient AML5 (Example 3), normal value of this line is an S/N ratio): 3.4
- pERK, AML Sample (pERK; patient AML6 (Example 3)): 3.0
- pERK, AML Sample (pERK; patient AML11 (Example 3)): 3.3
- pERK, AML Sample (pERK; patient AML12 (Example 3)): 3.3
- pERK, AML Sample (pERK; patient AML13 (Example 3)): 4.8
- Phosphorylation response in lymphocytes (lymphocytes): lack of SCF's effect

B1: FMS-Like Tyrosine Kinase 3 (FLT-3) ligand (protein, UniProt P49771 27-235, looked up)
Fms-related tyrosine kinase 3 …: TQDCSFQHSPISSDFAVKIRELSDYLLQDYPVTVASNLQDEELCGGLWRLVLAQRWMERLKTVAGSKMQGLLERVNTEIHFVTKCAFQPPPSCLRFVQTNISRLLQETSEQLVALKPWITRQNFSRCLELQCQPDSSTLPPPWSPRPLEATAPTAPQPPLLLLLLLPVGLLLLAAAWCLHWQRTRRRTPRPGEQVPPVPSPQDLLLVEH
- pERK, AML Sample (pERK; patient AML1 (Example 3)): 10.3
- pERK, AML Sample (pERK; patient AML5 (Example 3)): 8.1
- pERK, AML Sample (pERK; patient AML9 (Example 3)): 12.0
- Phosphorylation response in lymphocytes (lymphocytes): no response
